Here are results for 20 compounds from ChEMBL document CHEMBL2203211, “Isocytosine-based inhibitors of xanthine oxidase: design, synthesis, SAR, PK and in vivo efficacy in rat model of hyperuricemia” (Bioorg Med Chem Lett, 2012).

Data set [1] concerns the target Xanthine dehydrogenase/oxidase (Homo sapiens, UniProt P47989).
Description: Inhibition of xanthine oxidase using xanthine as substrate at 30 mins by spectrophotometric analysis
Data set [2] has as its system Rattus norvegicus. The data set is described as follows: Antihyperuricemic activity in fasted rat assessed as reduction in potassium oxonate-induced uric acid level in serum at 10 mg/kg, po administered 1 hr post potassium oxonate-challenge relative to vehicle-treated control. It counts as functional. More on the design: scale not given: the % may be the effect or the level left.

The test system of data set [3] is Rattus norvegicus. Put plainly: Antihyperuricemic activity in fasted rat assessed as reduction in potassium oxonate-induced uric acid level in serum at 100 mg/kg, ip administered 1 hr post potassium oxonate-challenge relative to vehicle-treated control. It counts as functional. More on the design: scale not given: the % may be the effect or the level left. The settings on record: route intraperitoneal.

Data set [4] can be described thus: Volume of distribution in rat at 2 mg/kg, iv. It counts as ADME, organism-based. Further details: dose 2 mg/kg, route intravenous. The settings on record: in vivo.
Data set [5] is described as follows: AUC (0 to infinity) in rat at 10 mg/kg, po. Further details: time infinity, dose 10 mg/kg, route oral. It counts as ADME, organism-based. The following applies: plasma.
A short description of data set [6]: Half life in rat at 2 mg/kg, iv. The settings on record: in vivo. It counts as ADME, organism-based. More on the design: dose 2 mg/kg, route intravenous.
A short description of data set [7]: Clearance in rat at 2 mg/kg, iv. The settings on record: in vivo. More on the design: dose 2 mg/kg, route intravenous. It counts as ADME, organism-based.
A short description of data set [8]: AUClast in rat at 10 mg/kg, po. It counts as ADME, organism-based. More on the design: time 0 - last, dose 10 mg/kg, route oral. The settings on record: plasma.
Data set [9] is described as follows: Cmax in rat at 10 mg/kg, po. The settings on record: in vivo. It counts as ADME, organism-based. Further details: dose 10 mg/kg, route oral.
A short description of data set [10]: Initial plasma concentration in rat at 2 mg/kg iv. Further details: dose 2 mg/kg, route intravenous. It counts as ADME, organism-based.
A short description of data set [11]: Tmax in rat at 10 mg/kg, po. It counts as ADME, organism-based. Further details: dose 10 mg/kg, route oral. The settings on record: in vivo.
The nature of data set [12]: Tmax in rat at 2 mg/kg, iv. It counts as ADME, organism-based. The settings on record: in vivo. Further details: dose 2 mg/kg, route intravenous.
Data set [13] is described as follows: Cmax in rat at 2 mg/kg, iv. It counts as ADME, organism-based. More on the design: dose 2 mg/kg, route intravenous. The following applies: in vivo.
A short description of data set [14]: AUC (0 to infinity) in rat at 2 mg/kg, iv. It counts as ADME, organism-based. More on the design: time infinity, dose 2 mg/kg, route intravenous. The following applies: plasma.
Data set [15] is described as follows: Half life in rat at 10 mg/kg, po. It counts as ADME, organism-based. Further details: dose 10 mg/kg, route oral. The following applies: in vivo.
A short description of data set [16]: AUClast in rat at 2 mg/kg, iv. It counts as ADME, organism-based. More on the design: time 0 - last, dose 2 mg/kg, route intravenous. The following applies: plasma.
The nature of data set [17]: Tmax in rat at 50 mg/kg, ip. It counts as ADME, organism-based. Further details: dose 50 mg/kg, route intraperitoneal. The settings on record: in vivo.
Data set [18] can be described thus: AUC (0 to infinity) in rat at 50 mg/kg, ip. It counts as ADME, organism-based. Further details: time infinity, dose 50 mg/kg, route intraperitoneal. The settings on record: plasma.
Data set [19] is described as follows: AUClast in rat at 50 mg/kg, ip. It counts as ADME, organism-based. More on the design: time 0 - last, dose 50 mg/kg, route intraperitoneal. The following applies: plasma.
The subject of data set [20] is Rattus norvegicus. The data set is described as follows: Antihyperuricemic activity in fasted rat assessed as reduction in potassium oxonate-induced uric acid level in serum at 100 mg/kg, po administered 1 hr post potassium oxonate-challenge relative to vehicle-treated control. It counts as functional. More on the design: scale not given: the % may be the effect or the level left.

The nature of data set [21]: Cmax in rat at 50 mg/kg, ip. It counts as ADME, organism-based. More on the design: dose 50 mg/kg, route intraperitoneal. The settings on record: in vivo.
Data set [22] in a line: Half life in rat at 50 mg/kg, ip. More on the design: dose 50 mg/kg, route intraperitoneal. It counts as ADME, organism-based. The settings on record: in vivo.
Data set [23] in a line: AUClast in rat at 100 mg/kg, po. It counts as ADME, organism-based. More on the design: time 0 - last, dose 100 mg/kg, route oral. The following applies: plasma.
Data set [24] can be described thus: AUC (0 to infinity) in rat at 100 mg/kg, po. It counts as ADME, organism-based. More on the design: time infinity, dose 100 mg/kg, route oral. The settings on record: plasma.
A short description of data set [25]: Half life in rat at 100 mg/kg, po. It counts as ADME, organism-based. More on the design: dose 100 mg/kg, route oral. The settings on record: in vivo.
Data set [26] can be described thus: Tmax in rat at 100 mg/kg, po. The following applies: in vivo. Further details: dose 100 mg/kg, route oral. It counts as ADME, organism-based.
Data set [27] deals with Rattus norvegicus. Put plainly: Antihyperuricemic activity in fasted rat assessed as reduction in potassium oxonate-induced uric acid level in serum at 100 mg/kg, po administered 1 hr post potassium oxonate-challenge relative to allopurinol. It counts as functional.
Data set [28] can be described thus: Cmax in rat at 100 mg/kg, po. It counts as ADME, organism-based. Further details: dose 100 mg/kg, route oral. The following applies: in vivo.
Data set [29] deals with Rattus norvegicus. Put plainly: Antihyperuricemic activity in fasted rat assessed as reduction in potassium oxonate-induced uric acid level in serum at 50 mg/kg, ip administered 1 hr post potassium oxonate-challenge relative to vehicle-treated control. It counts as functional. Further details: scale not given: the % may be the effect or the level left. The following applies: route intraperitoneal.

For data set [30], the system named is Rattus norvegicus. The data set is described as follows: Antihyperuricemic activity in fasted rat assessed as reduction in potassium oxonate-induced uric acid level in serum at 200 mg/kg, po administered 1 hr post potassium oxonate-challenge relative to vehicle-treated control. It counts as functional, organism-based. Further details: dose 200 mg/kg.

The structures appear in SMILES notation. Calls of active or inactive are those of the source. The calls are words filed in the database; no cut-off is given here.

As a reminder, the IC50 is the concentration needed to halve the response being measured. The term Vd denotes a proportionality between amount in the body and measured concentration, not a real space. In general, AUC(0-inf) refers to total exposure, with the tail of the curve extrapolated. One may read the half-life as the time in which the quantity being followed falls by half. In general, clearance refers to a measure of how efficiently the substance is removed, as volume per time. A word on the AUC(0-t): it is exposure summed from dosing to a finite time, without extrapolation to infinity. Usually Cmax stands for the peak of the concentration-time curve. By Tmax is commonly meant the time from dosing to the highest level.

Chain of Xanthine dehydrogenase/oxidase (P47989 whole entry): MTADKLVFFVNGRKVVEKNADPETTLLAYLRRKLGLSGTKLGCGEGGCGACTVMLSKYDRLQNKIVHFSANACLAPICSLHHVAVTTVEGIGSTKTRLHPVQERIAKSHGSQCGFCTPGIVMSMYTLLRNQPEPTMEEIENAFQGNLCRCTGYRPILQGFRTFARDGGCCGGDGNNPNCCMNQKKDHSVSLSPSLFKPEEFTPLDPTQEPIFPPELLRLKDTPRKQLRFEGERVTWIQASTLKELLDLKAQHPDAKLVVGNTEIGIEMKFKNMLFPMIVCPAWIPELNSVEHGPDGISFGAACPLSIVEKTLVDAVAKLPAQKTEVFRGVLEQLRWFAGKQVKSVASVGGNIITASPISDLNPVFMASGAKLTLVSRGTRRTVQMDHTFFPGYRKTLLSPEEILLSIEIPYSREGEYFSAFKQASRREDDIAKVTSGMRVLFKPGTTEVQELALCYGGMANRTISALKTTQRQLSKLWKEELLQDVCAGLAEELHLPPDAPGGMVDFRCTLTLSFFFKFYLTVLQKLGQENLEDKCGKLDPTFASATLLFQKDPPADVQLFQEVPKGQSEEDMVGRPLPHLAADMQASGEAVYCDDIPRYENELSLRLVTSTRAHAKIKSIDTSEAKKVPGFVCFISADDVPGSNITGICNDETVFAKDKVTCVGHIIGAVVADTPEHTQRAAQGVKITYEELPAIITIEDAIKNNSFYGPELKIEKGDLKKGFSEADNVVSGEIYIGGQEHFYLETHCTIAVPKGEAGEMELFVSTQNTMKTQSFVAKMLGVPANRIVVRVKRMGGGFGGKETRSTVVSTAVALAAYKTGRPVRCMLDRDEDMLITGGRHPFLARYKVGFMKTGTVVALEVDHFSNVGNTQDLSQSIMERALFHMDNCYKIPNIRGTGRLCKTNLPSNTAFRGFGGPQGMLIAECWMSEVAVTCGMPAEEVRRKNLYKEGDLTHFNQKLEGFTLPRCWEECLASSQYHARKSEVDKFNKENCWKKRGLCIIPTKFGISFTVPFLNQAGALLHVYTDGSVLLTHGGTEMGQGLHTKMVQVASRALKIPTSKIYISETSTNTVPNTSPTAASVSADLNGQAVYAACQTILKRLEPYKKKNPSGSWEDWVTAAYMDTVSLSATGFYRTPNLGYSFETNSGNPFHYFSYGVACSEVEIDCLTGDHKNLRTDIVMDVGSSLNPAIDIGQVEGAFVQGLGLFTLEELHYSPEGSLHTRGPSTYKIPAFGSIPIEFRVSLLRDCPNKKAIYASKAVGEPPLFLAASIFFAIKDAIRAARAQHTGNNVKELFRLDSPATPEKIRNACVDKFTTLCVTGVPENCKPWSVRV

In the case of `Cc1nc(-c2ccc(OCC(C)C)c(C#N)c2)sc1C(=O)O` [FEBUXOSTAT], the 50% inhibitory concentration (IC50) in data set [1] was found to be 30 nM. Moreover, the values for the Activity in data set [2] and in data set [3] were 180% and 181%, respectively.

Regarding `CC(C)COc1ccc(-c2cc(=O)[nH]c(N)n2)cc1C#N`, the Vd in data set [4] is 3.83 L/kg. The AUC(0-inf) in data set [5] was 310 ng·h/mL; in [14], 480 ng·h/mL. Moreover, the half-life in data set [6] was 0.63 h; in data set [15], 11.4 h. In addition, the clearance in [7] was 71.3 mL/min/kg. The AUC(0-t) is 200 ng·h/mL in [8] and 470 ng·h/mL in data set [16]. The peak concentration (Cmax) in [9] was 0.23 µM; in [13] it was 4.19 µM. In data set [10], this compound gave a C0 of 1360 ng/mL. Further, the time to peak (Tmax) in [11] came out at 0.19 h; in data set [12], 1.8 min.

As for `CC(C)COc1ccc(-c2cc(=O)[nH]c(N)n2)cc1OC(F)(F)F`, the 50% inhibitory concentration (IC50) in data set [1] is more than 20000 nM.

In the case of `CCCCSc1ccc(-c2cc(=O)[nH]c(N)n2)cc1`, the midpoint of inhibition in data set [1], the IC50, lay at 1630 nM.

The compound `CC(C)COc1ccc(-c2cc(O)nc(N)n2)cc1[N+](=O)[O-]` showed an IC50 in data set [1] of 140 nM. Further, in data set [17], the Tmax was 2 h. The AUC(0-inf) in [18] is 17600 ng·h/mL. For the same compound, the Activity in data set [3] is 133%; in data set [20], 93%. In addition, in data set [19], the AUC(0-t) turned out to be 14000 ng·h/mL. The compound further displayed a Cmax in [21] of 9.59 µM. Besides, the half-life in data set [22] is 12.2 h.

In data set [23], `CC(C)COc1ccc(-c2cc(O)nc(N)n2)cc1` displayed an AUC(0-t) of 4390 ng·h/mL. In data set [24], this compound gave an AUC(0-inf) of 5680 ng·h/mL. For the same compound, the Activity was 77% in data set [3] and 23.7% in data set [20]. The compound further gave a half-life in data set [25] of 3.42 h. Besides, the time of peak concentration (Tmax) in data set [26] was determined as 0.5 h. Moreover, the Efficacy in data set [27] turned out to be 18%. Besides, the Cmax in [28] was 5.16 µM.

For the compound `COc1cc(-c2cc(O)nc(N)n2)ccc1OCC(C)C`, in data set [1], inhibition was half-maximal at 950 nM (IC50). Also, in data set [17], the Tmax was determined as 2 h. Further, in data set [18], the total exposure AUC(0-inf) amounted to 27700 ng·h/mL. In [19], this compound displayed an AUC(0-t) of 27600 ng·h/mL. For the same compound, in [29], the Activity was 55%. In addition, in [21], the maximum concentration (Cmax) was 34.3 µM. This compound gave a half-life in [22] of 0.85 h.

As to `Nc1nc(-c2ccc(-c3ccccc3)cc2)cc(=O)[nH]1`, the Tmax in data set [17] is 3.33 h; in data set [26], 0.88 h. In addition, the area under the curve AUC(0-inf) in data set [18] stood at 23100 ng·h/mL; in [24] it was 890 ng·h/mL. Moreover, the values for the exposure AUC(0-t) in [23] and in [19] were 600 ng·h/mL and 21900 ng·h/mL, respectively. Also, the half-life in data set [25] is 2.85 h; in data set [22], 5.52 h. The Cmax worked out at 7.13 µM in data set [21] and 0.81 µM in [28].

Consider `Nc1nc(O)cc(-c2ccc(OCCCO)cc2)n1`, for which the IC50 in data set [1] was found to be 9240 nM.

`CCCCOc1ccc(-c2cc(=O)[nH]c(N)n2)cc1`: it took 2100 nM to reach half-maximal inhibition in data set [1] (IC50).

`COc1ccc(-c2cc(=O)[nH]c(N)n2)cc1` displayed an exposure AUC(0-t) in [23] of 4080 ng·h/mL. In [24], this compound returned a total exposure AUC(0-inf) of 4110 ng·h/mL. In addition, in [25], the half-life is 6.59 h. For the same compound, the time of peak concentration (Tmax) in [26] worked out at 0.25 h. This compound yielded a maximum concentration (Cmax) in [28] of 23.5 µM.

In the case of `CC(C)COc1ccc(-c2cc(O)nc(N)n2)cc1C#N`, the Activity in data set [3] turned out to be 124%. The outcome in [30] was inactive.

In data set [1], `Nc1nc(O)cc(-c2ccc(Oc3ccccc3)cc2)n1` registered an IC50 of 2470 nM.

The compound `Nc1nc(O)cc(-c2ccc(N3CCOCC3)cc2)n1` gave a concentration for half-maximal inhibition (IC50) in data set [1] of 16500 nM.

In data set [1], `CC(C)COc1ccc(-c2cc(=O)[nH]c(N)n2)cc1C(N)=O` came in with an IC50 of 1920 nM.

Consider `CC(C)Cc1ccc(-c2cc(O)nc(N)n2)cc1`, for which half-maximal inhibition in data set [1] (IC50) required 4950 nM.

`CC(C)Sc1ccc(-c2cc(O)nc(N)n2)cc1` came in with a half-inhibitory concentration (IC50) in data set [1] of 2440 nM.

In the case of `Oc1ncnc2[nH]ncc12` [ALLOPURINOL], the Activity in data set [2] was 130%; in data set [3], 177%.

`CC(C)COc1ccc(-c2cc(=O)[nH]c(N)n2)cc1N` had an IC50 in data set [1] of 6720 nM.

With `Nc1nc(-c2ccc(O)cc2)cc(=O)[nH]1`, in data set [1], the IC50 was more than 30000 nM.
